The record followed here is US20040204577A1, “Novel peptide-forming enzyme gene” (Ajinomoto Co., Inc., priority 2003, published 2004).

In assay [1] the test system is peptide-forming enzyme (Mono S fraction enzyme). Nature of the assay: Production of L-alanyl-L-glutamine from L-alanine methyl ester and L-glutamine with enzyme fraction. It counts as biochemical, Empedobacter brevis. The note with it: for L-Ala-L-Gln: L-alanine methyl ester hydrochloride 100 mM, 18° C., 2 hours. On the procedure:
On the other hand, there was hardly any production of L-Ala-L-Gln observed in an enzyme-non-added lot, and the […] was only about 0.07 mM after reacting for 120 minutes.

Assay [2] has as its system microbial cells of Empedobacter brevis strain FERM BP-8113. Put plainly: Production of peptide using microbial cells. Type of assay: cell-based. The note with it: 1 mL cell suspension (100 g/L) + 1 mL buffer with 200 mM carboxy component (hydrochloride) and 400 mM amino acid; borate buffer pH 9.0, 10 mM EDTA; 18° C., 2 hours. The method, then: A 50 mL medium (pH 6.2) containing 5 grams (g) of glucose, 5 g of ammonium sulfate, 1 g of monopotassium phosphate, 3 g of dipotassium phosphate, 0.5 g of magnesium sulfate, 10 g of yeast extract and 10 g of peptone in 1 liter (L) was transferred to a 500 mL Sakaguchi flask and sterilized at 115° C. for 15 minutes. This medium was then inoculated with one loopful cells of Empedobacter brevis strain FERM BP-8113 (Depositary institution: the independent administrative corporation, National Institute of Advanced Industrial Science and Technology, International Patent Organism Depositary, Address of depositary institution: Chuo Dai-6, 1-1 Higashi 1-Chome, Tsukuba-shi, Ibaraki-ken, Japan, International deposit transfer date: Jul. 8, 2002) that had been cultured at 30° C. for 16 hours in the same medium, followed by shake culturing at 30° C. for 16 hours and 120 strokes/min.

In assay [3] the test system is microbial cells of Sphingobacterium sp. strain FERM BP-8124. Put plainly: Production of L-alanyl-L-glutamine using microbial cells of Sphingobacterium sp. Type of assay: cell-based. The note with it: 0.1 mL cell suspension (100 g/L) + 0.1 mL buffer with 200 mM L-alanine methyl ester hydrochloride, 400 mM L-glutamine; pH 9.0, 25° C., 120 minutes. On the procedure: A 50 ml medium (pH 7.0) containing 5 g of glucose, 5 g of ammonium sulfate, 1 g of monopotassium phosphate, 3 g of dipotassium phosphate, 0.5 g of magnesium sulfate, 10 g of yeast extract, and 10 g of peptone in 1 L was transferred to a 500 mL Sakaguchi flask and sterilized at 11 5° C. for 15 minutes for culturing Sphingobacterium sp. strain FERM BP-8124 (Depositary institution: the independent administrative corporation, National Institute of Advanced Industrial Science and Technology, International Patent Organism Depositary, Address of depositary institution: Chuo Dai-6, 1-1 Higashi 1-Chome, Tsukuba-shi, Ibaraki-ken, Japan, International deposit date: Jul. 22, 2002). This medium was then inoculated with one loopful cells of Sphingobacterium sp. strain FERM BP-8124 (Depositary institution: the independent administrative corporation, National Institute of Advanced Industrial Science and Technology, International Patent Organism Depositary, Address of depositary institution: Chuo Dai-6, 1-1 Higashi 1-Chome, Tsukuba-shi, Ibaraki-ken, Japan, International deposit date: Jul. 22, 2002) cultured at 30° C. for 24 hours in a slant agar medium (agar: 20 g/L, pH 7.0) containing 5 g of glucose, 10 g of yeast extract, 10 g of peptone and 5 g of NaCl in 1 L, followed by shake culturing at 30° C. for 20 hours and 120 strokes/minute. […]

Each structure is given as a SMILES string. Where a SMILES comes first, the peptide text is derived from it.

Consider `C[C@H](N)C(=O)N[C@@H](CCC(N)=O)C(=O)O` [L-Ala-L-Gln, L-alanyl-L-glutamine] (H-Ala-Gln-OH), for which the “Peptide formed, enzyme-added lot” value in assay [1] (100 mM L-alanine methyl ester hydrochloride, 200 mM L-glutamine, 10 mM EDTA, pH 9.0, 18° C., FIG. 3) was found to be 83 mM. In addition, the L-Ala-L-Gln is 68.2 mM in assay [1] (L-glutamine 100 mM); 72.1 mM in assay [1] (L-glutamine 110 mM); 73.3 mM in assay [1] (L-glutamine 120 mM); 75.1 mM in assay [1] (L-glutamine 130 mM); 75.5 mM in assay [1] (L-glutamine 150 mM); 82.0 mM in assay [1] (L-glutamine 200 mM). Further, in assay [2], the Formed peptide worked out at 68.0 mM. For the same molecule, the L-alanyl-L-glutamine formed in assay [3] is recorded as 62 mM.
